Source: patent US20100150845A1, “SYSTEM AND METHOD FOR THE DELIVERY OF A SANITIZING FOAM” (GREEN SOURCE AUTOMATED, LLC, priority 2008, published 2010)
Read-outs that look alike come from different tables or passages of the source.

How the values were obtained:
[1] = Gas dissolved in teat dip solution under pressure; assay type: physicochemical; conditions: standard room temperature and 100 psi pressure
Source text: The pressure vessel was constructed from a 0.1 m outside diameter piece of stainless steel tubing. The ends of the tube were capped with tri clover fittings to allow ease of access. The tri-clover caps were modified by adding two entry points on the proximal cap. One entry point on the proximal cap is to allow propellant/diffused gas to be introduced and the other is used to bleed off atmospheric air, when the tank was initially filled with propellant/diffused gas and to relieve pressure before refilling. On the distal cap of the tank two openings were added, each with tubing securely attached and each tube going to a manual shut off valve with a spray nozzle attached. A propellant/diffusion gas source with regulator was attached to the pressure vessel through the entry point on the proximal cap. The pressure vessel is filled about half full with teat dip solution, closed and the tank is pressurized with approximately 100 pounds per square inch (psi) of propellant/diffusion gas, except for the 50% carbon dioxide and 50% nitrous oxide propellant/diffusion gas which is set at 150 psi. The distance and angle from nozzle to teat is 0.15 m and 45 degrees from the horizontal (which were set to mimic a robotic tool used for some embodiments). […]

[2] = cited from earlier work

volumes of gas dissolved per volume of dip solution [1] | volumes of gas dissolved in one volume of the dip solution [1] | SMILES | vapor pressure ([2]; at 185° K.) | vapor pressure ([2]; at 290° K.)
approximately 4.5 volumes |  | O=C=O [CO2, Carbon dioxide] | approximately 0.45 bar | approximately 50 bar
 | approximately four | [N-]=[N+]=O [Example N2O, nitrous oxide] | approximately 1 bar | approximately 50 bar
